What was measured:
Rattus norvegicus [1] = assay: In vivo Sterol lowering activity at dose as 0.01 % of the diet.; format: functional
Rattus norvegicus [2] = assay: In vivo Sterol lowering activity at dose as 0.03 % of the diet.; format: functional
[3] = target: T1, Sterol O-acyltransferase 1 (Rattus norvegicus) (UniProt O70536); assay: In vitro inhibitory activity against acyl coenzyme A:cholesterol acyltransferase; set-up: concentration or dose not given beside the values; details: concentration not given here
T1 sequence (whole entry): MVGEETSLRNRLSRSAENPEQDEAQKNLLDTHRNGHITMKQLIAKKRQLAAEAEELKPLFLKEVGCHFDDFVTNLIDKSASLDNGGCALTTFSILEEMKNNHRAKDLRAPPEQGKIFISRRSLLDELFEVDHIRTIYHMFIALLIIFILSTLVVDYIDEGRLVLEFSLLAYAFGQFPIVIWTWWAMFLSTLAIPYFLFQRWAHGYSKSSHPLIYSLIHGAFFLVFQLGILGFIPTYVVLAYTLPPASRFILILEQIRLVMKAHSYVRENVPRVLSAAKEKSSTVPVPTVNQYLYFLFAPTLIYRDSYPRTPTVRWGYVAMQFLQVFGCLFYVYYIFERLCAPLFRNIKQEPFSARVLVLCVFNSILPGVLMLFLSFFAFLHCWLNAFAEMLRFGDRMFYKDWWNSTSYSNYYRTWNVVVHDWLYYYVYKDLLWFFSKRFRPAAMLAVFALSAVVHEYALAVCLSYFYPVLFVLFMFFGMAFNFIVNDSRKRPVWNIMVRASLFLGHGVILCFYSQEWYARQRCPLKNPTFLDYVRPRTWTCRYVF

Rattus norvegicus [4] = assay: In vivo Triglyceride lowering activity at dose as 0.03 % of the diet.; format: functional
Rattus norvegicus [5] = assay: In vivo Triglyceride lowering activity at dose as 0.10 % of the diet.; format: functional
Rattus norvegicus [6] = assay: In vivo Sterol lowering activity at dose as 0.10 % of the diet.; format: functional
Rattus norvegicus [7] = assay: In vivo Triglyceride lowering activity at dose as 0.01 % of the diet.; format: functional

| Structure (SMILES) | inhibition [3] [%] | Diet (Rattus norvegicus [1]) [%] | Diet (Rattus norvegicus [2]) [%] | Diet (Rattus norvegicus [4]) [%] | Diet (Rattus norvegicus [5]) [%] | Diet (Rattus norvegicus [6]) [%] | Diet (Rattus norvegicus [7]) [%] |
| --- | --- | --- | --- | --- | --- | --- | --- |
| CCCC(Nc1ccc(C(=O)OCC)cc1)C(=O)OCC (stereo not given) | 44 | 103 | 109 | 96 | 77 | 102 | 93 |
| CCOC(=O)CCNc1ccc(C(=O)OCC)cc1 | 28 | 97 | 100 | 98 | 103 | 94 | 109 |
| O=C(O)CCCCCNc1ccc(C(=O)O)cc1 | 4 | 92 | 100 | 91 | 102 | 105 | 85 |

Further lines, with some results ahead:

| inhibition [3] [%] | Structure (SMILES) | Diet (Rattus norvegicus [1]) [%] | Diet (Rattus norvegicus [2]) [%] | Diet (Rattus norvegicus [4]) [%] | Diet (Rattus norvegicus [5]) [%] | Diet (Rattus norvegicus [6]) [%] | Diet (Rattus norvegicus [7]) [%] |
| --- | --- | --- | --- | --- | --- | --- | --- |
| 2 | CCOC(=O)c1ccc(NC(=O)CCC(=O)OC)cc1 | 86 | 99 | 92 | 114 | 97 | 99 |
| 23 | CCOC(=O)c1ccc(NC(C)C(=O)OCC)cc1 (stereo not given) | 107 | 93 | 110 | 82 | 107 | 123 |

Reference: ChEMBL document CHEMBL1122462, “Potential antiatherosclerotic agents. 4. [(Functionalized-alkyl)amino]benzoic acid analogues of cetaben” (1983)
